Measured values as given in patent US20060069132A1, “Azolecarboxamide herbicides” (priority 2004, published 2006).

How the values were obtained:
large crabgrass = assay: Test A pre-/postemergence herbicide test; type: in vivo, Digitaria sanguinalis
Method in brief: (§1)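 Plants are held in greenhouse about ten days after treatment, then compared with untreated controls and scored 0 (no effect) to 100 (complete control). Preemergence dosing is a directed soil spray on sown sandy loam; postemergence dosing is spray to runoff at 2–10 cm height.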

velvetleaf = assay: Test A pre-/postemergence herbicide test; type: in vivo, Abutilon theophrasti
Method in brief: as §1

rice = assay: Test B pre-/postemergence herbicide test; type: in vivo, Oryza sativa; details: preemergence
Method in brief: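 Test chemicals in a non-phytotoxic solvent mixture with surfactant were applied preemergence to seeded species and postemergence to plants 2-18 cm tall (1- to 4-leaf stage); rice and barnyardgrass were also tested in a flooded paddy at the 2-leaf stage. Visual rating versus controls after 13-15 days in greenhouse, scale 0 (no effect) to 100 (complete control).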

Surinam grass = assay: Test C pre-/postemergence herbicide test; type: in vivo, Urochloa decumbens; details: for Plant response rating, Surinam Grass: preemergence
Method in brief: (§2)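 Greenhouse-grown plants were evaluated visually 12 to 14 days after treatment, with 100 meaning complete control and 0 no effect. Application was preemergence, or postemergence at 2 to 18 cm.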

woolly cupgrass = assay: Test C pre-/postemergence herbicide test; type: in vivo, Eriochloa villosa; details: for Plant response rating, Cupgrass, Woolly: preemergence
Method in brief: as §2

goosegrass = assay: Test C pre-/postemergence herbicide test; type: in vivo, Eleusine indica; details: for Plant response rating, Goosegrass: preemergence
Method in brief: as §2

johnsongrass = assay: Test C pre-/postemergence herbicide test; type: in vivo, Sorghum halepense; details: for Plant response rating, Johnsongrass: preemergence
Method in brief: as §2

eastern black nightshade = assay: Test C pre-/postemergence herbicide test; type: in vivo, Solanum ptycanthum; details: for Plant response rating, Nightshade: preemergence
Method in brief: as §2

soybean = assay: Test C pre-/postemergence herbicide test; type: in vivo, Glycine max; details: for Plant response rating, Soybean: preemergence
Method in brief: as §2

[1] = tested on: common (oilseed) sunflower; assay: Test C pre-/postemergence herbicide test; type: in vivo, Helianthus annuus; details: for Plant response rating, Sunflower: preemergence
Method in brief: as §2

[2] = Postemergence, 500 g ai/ha, 0 to 100 scale, 0 no effect, 100 complete control
[3] = Postemergence, 2000 g ai/ha, 0 to 100 scale, 0 no effect, 100 complete control
[4] = Preemergence, 2000 g ai/ha, visual rating, 0 to 100 scale (0 no effect, 100 complete control)
[5] = preemergence, 500 g ai/ha, visual injury, 0 to 100 scale (0 no effect, 100 complete control)
[6] = 125 g ai/ha, scale 0 (no effect) to 100 (complete control), visual, 12 to 14 days
[7] = Preemergence, 500 g ai/ha, scale 0 to 100, 0 no effect, 100 complete control

Structure (SMILES): CCNC(=O)c1cccc(NC(=O)c2sc(C(C)(C)C)nc2C)c1 [Compound 198]
- Crabgrass, Large plant response rating (large crabgrass; [2]): 20
- Plant response rating, Crabgrass, Large (large crabgrass; [3]): 65
- Crabgrass, Large plant response rating (large crabgrass; [4]): 90
- Crabgrass, Large plant response rating (large crabgrass; [5]): 80
- Velvetleaf plant response rating (velvetleaf; [2]): 30
- Plant response rating, Velvetleaf (velvetleaf; [3]): 35
- Velvetleaf plant response rating (velvetleaf; [4]): 85
- Velvetleaf plant response rating (velvetleaf; [5]): 45
- Rice plant response rating (0 to 100 scale) (rice; 125 g ai/ha, 0 = no effect, 100 = complete control): 30
- Plant response rating, Rice (rice; 500 g ai/ha, visual rating 0-100, 0 no effect, 100 complete control): 80
- Plant response rating, Surinam Grass (Surinam grass; 62 g ai/ha, scale 0 to 100): 0
- Plant response rating, Surinam Grass (Surinam grass; [6]): 10
- Plant response rating, Surinam Grass (Surinam grass; 250 g ai/ha, scale 0-100): 30
- Surinam Grass plant response rating (Surinam grass; [7]): 100
- Plant response rating, Cupgrass, Woolly (woolly cupgrass; 62 g ai/ha, scale 0 to 100): 0
- Plant response rating, Cupgrass, Woolly (woolly cupgrass; [6]): 5
- Plant response rating, Cupgrass, Woolly (woolly cupgrass; 250 g ai/ha, scale 0-100): 10
- Cupgrass, Woolly plant response rating (woolly cupgrass; [7]): 70
- Plant response rating, Goosegrass (goosegrass; 62 g ai/ha, scale 0 to 100): 20
- Plant response rating, Goosegrass (goosegrass; [6]): 80
- Plant response rating, Goosegrass (goosegrass; 250 g ai/ha, scale 0-100): 95
- Goosegrass plant response rating (goosegrass; [7]): 100
- Plant response rating, Johnsongrass (johnsongrass; 62 g ai/ha, scale 0 to 100): 0
- Plant response rating, Johnsongrass (johnsongrass; [6]): 30
- Plant response rating, Johnsongrass (johnsongrass; 250 g ai/ha, scale 0-100): 60
- Johnsongrass plant response rating (johnsongrass; [7]): 95
- Plant response rating, Nightshade (eastern black nightshade; 62 g ai/ha, scale 0 to 100): 90
- Plant response rating, Nightshade (eastern black nightshade; [6]): 95
- Plant response rating, Nightshade (eastern black nightshade; 250 g ai/ha, scale 0-100): 100
- Nightshade plant response rating (eastern black nightshade; [7]): 100
- Plant response rating, Soybean (soybean; 62 g ai/ha, scale 0 to 100): 0
- Plant response rating, Soybean (soybean; [6]): 0
- Plant response rating, Soybean (soybean; 250 g ai/ha, scale 0-100): 0
- Soybean plant response rating (soybean; [7]): 25
- Plant response rating, Sunflower ([1]; 62 g ai/ha, scale 0 to 100): 0
- Plant response rating, Sunflower [1, 6]: 0
- Plant response rating, Sunflower ([1]; 250 g ai/ha, scale 0-100): 10
- Sunflower plant response rating [1, 7]: 20
